# Source: paper PMC7377239, “Cardiovascular Effects of Polychlorinated Biphenyls and Their Major Metabolites” (Environmental Health Perspectives, 2020)
# Where two headings read alike, the source gives them in different places.
# Test system: iCell cardiomyocytes (human iPSC-derived cardiomyocytes)
# Test: Intracellular Ca2+ flux / beating parameters in iCell cardiomyocytes (FLIPR tetra), 90 min or 24 h
# Format: cell-based
# Conditions: Homo sapiens, Cardiomyocyte, 0.00 µM = 100.00; for activity at 0.1 µM: 0.10 µM
# Method: Details on cardiomyocyte cell culture are described in detail elsewhere ([Grimm et al. 2015b]; [Sirenko et al. 2013a]). Briefly, tissue-culture treated 384 well plates were gelatinized with 25μL per well of 0.1% (w/v) gelatin in water for 2 h at 37°C and 5% CO2 . Individual vials of cells were thawed for 4 min in a water bath maintained at 37°C. Thawed cells were resuspended in 10ml plating medium containing 1:500 (vol/vol) penicillin/streptomycin solution at room temperature (RT). Live cell counts for each cell suspension were determined by trypan blue staining and cells were further diluted to provide final cell densities of 2×10^5 viable cells/ml. Thus, 5,000 cells suspended in 25μL media were transferred per well after the gelatin solution had been discarded. Cell culture plates were rested for 30 min at RT before they were incubated for 48 h at 37°C and 5% CO2 . Then, a media exchange with 30μL of fresh maintenance medium containing 1:500 (vol/vol) penicillin/streptomycin solution was performed, and cell media were subsequently changed every 48 h for 12 d. On the experiment day, the medium was completely exchanged with either 25μL (for Ca^2+ flux assay) or 40μL (for imaging) of fresh medium.
# Responses of iCell®-cardiomyocytes to drugs and chemicals were evaluated using intracellular Ca^2+ flux measurements ([Grimm et al. 2015b]; [Sirenko et al. 2013b]). For experiments, 20 mM stock solutions of PCBs and PCB metabolites were prepared in DMSO ( 200× ). Chemical working solutions ( 5× ) were prepared using cardiomyocyte maintenance medium and contained 2.5% (vol/vol) DMSO. These chemical master plates were prepared to include all chemicals in concentration–response (0.05, 0.5, 5, 50, and 500μM ). Negative controls included media-only and vehicle control (i.e., 0.5% vol/vol DMSO in cell culture media) wells. Positive assay controls were consistent with previously published reports ([Grimm et al. 2018]) and included TAB ( 50μM ) as a cytotoxic control, and isoproterenol ( 0.1–10μM ), propranolol ( 0.1–5 μM ), cisapride ( 0.01–1μM ), and doxorubicin ( 0.1–5μM ) as chemicals associated with specific effects on beating and ion flux. Each test chemical was screened in triplicate for each concentration.
# Experiments started with the addition of 25μL of prewarmed 2× concentrated calcium dye reagent to sample wells containing 25μL maintenance media. Microplates were then acclimated for 2 h at 37°C. Following equilibration, cardiomyocyte sample wells were treated simultaneously by the addition of 12.5μL of prewarmed 5× chemical solution to iCell®-cardiomyocytes using the automated liquid handler in the FLIPR tetra (Molecular Devices). Treated cell cultures were incubated for either 90 min or 24 h. After the conclusion of the treatment period, the Ca^2+ flux was measured for 100 s at a frequency of 8 Hz using the integrated fluorescence plate reader in the FLIPR tetra (Molecular Devices) using an emission wavelength range of λemission=515–575 nm ( λexcitation=470–495 nm ). Additional instrument settings included exposure time per read of 0.05s, a gain of 2000, an excitation intensity of 30%, and an internal temperature of 37°C.
# Ca^2+ flux data were processed in R studio (version 1.0.136, with R version 3.3.2; R Development Core Team) as described elsewhere ([Blanchette et al. 2019]; [Burnett et al. 2019]). Calculated quantitative metrics included the means and coefficients of variation (CV) of the peak height, which can be indicative of cytotoxicity, inhibition, or stimulation of beating. Means of peak frequency, an indicator of positive or negative […], and CV of peak spacing, an indicator of irregular beating, were also derived from Ca^2+ flux traces. Finally, the mean ratio of the decay over rise time was calculated. Increases in the decay/rise time ratio are reflective of delayed repolarization and are a measure for QT prolongation. […]
# [1] = 1.5 h, 90min, read-out: cm.amp.avg.90min
# [2] = 1.5 h, 90min, read-out: cm.amp.cv.90min
# [3] = 1.5 h, 90min, read-out: cm.bpm.90min
# [4] = 1.5 h, 90min, read-out: cm.decay.rise.90min
# [5] = 1.5 h, 90min, read-out: cm.spacing.cv.90min
# [6] = 24 h, 24hrs, read-out: cm.amp.avg.24hrs
# [7] = 24 h, 24hrs, read-out: cm.amp.cv.24hrs
# [8] = 24 h, 24hrs, read-out: cm.bpm.24hrs
# [9] = 24 h, 24hrs, read-out: cm.decay.rise.24hrs
# [10] = 24 h, 24hrs, read-out: cm.spacing.cv.24hrs
compound,measurement,setting,value
COc1cc(Cl)c(-c2cc(Cl)ccc2Cl)cc1Cl [4-OMe PCB52],activity at 0.01 µM,[1],106%
same,activity at 0.01 µM,[2],122%
same,activity at 0.01 µM,[3],97.8%
same,activity at 0.01 µM,[4],97.5%
same,activity at 0.01 µM,[5],105%
same,activity at 0.1 µM,[1],106%
same,activity at 0.1 µM,[2],92.7%
same,activity at 0.1 µM,[3],102%
same,activity at 0.1 µM,[4],99.6%
same,activity at 0.1 µM,[5],88%
same,activity at 1 µM,[1],107%
same,activity at 1 µM,[2],113%
same,activity at 1 µM,[3],100%
same,activity at 1 µM,[4],97%
same,activity at 1 µM,[5],94.3%
same,activity at 10 µM,[1],83.3%
same,activity at 10 µM,[2],119%
same,activity at 10 µM,[3],120%
same,activity at 10 µM,[4],91.9%
same,activity at 10 µM,[5],108%
same,activity at 100 µM,[1],0%
same,activity at 100 µM,[2],0%
same,activity at 100 µM,[3],0%
same,activity at 100 µM,[4],0%
same,activity at 100 µM,[5],0%
same,activity at 0.01 µM,[6],89%
same,activity at 0.01 µM,[7],35.4%
same,activity at 0.01 µM,[8],54.4%
same,activity at 0.01 µM,[9],45.5%
same,activity at 0.01 µM,[10],56.2%
same,activity at 0.1 µM,[6],164%
same,activity at 0.1 µM,[7],69.5%
same,activity at 0.1 µM,[8],109%
same,activity at 0.1 µM,[9],100%
same,activity at 0.1 µM,[10],108%
same,activity at 1 µM,[6],166%
same,activity at 1 µM,[7],70.7%
same,activity at 1 µM,[8],95.5%
same,activity at 1 µM,[9],109%
same,activity at 1 µM,[10],102%
same,activity at 10 µM,[6],138%
same,activity at 10 µM,[7],81.2%
same,activity at 10 µM,[8],104%
same,activity at 10 µM,[9],107%
same,activity at 10 µM,[10],102%
same,activity at 100 µM,[6],0%
same,activity at 100 µM,[7],0%
same,activity at 100 µM,[8],0%
same,activity at 100 µM,[9],0%
same,activity at 100 µM,[10],0%
